Reference: US7491794B2, “Macrocyclic compounds as inhibitors of viral replication” (Intermune, Inc., priority 2003, dated 2009)
pEC50, pIC50: −log10 of the molar value. Like-named read-outs stand apart in the source and are kept apart here.

Assays:
NS3-NS4 protease = target: T1, NS3-NS4 protease (Hepatitis C virus genotype 1a, UniProt P27958); test: NS3-NS4 protease assay / NS3 inhibition assay, Section C; type: biochemical
T1 construct: Recombinant E. coli or Baculovirus full-length NS3 was diluted to 3.33 μM with assay buffer; made in house; host or cells: E. coli or baculovirus (BV) system
Description: NS3 complex formation with NS4A-2.
Recombinant E. coli or Baculovirus full-length NS3 was diluted to 3.33 μM with assay buffer and transfered material to an eppendorf tube and place in water bath in 4° C. refrigerator. The appropriate amount of NS4A-2 to 8.3 mM in assay buffer was added to equal the volume of NS3 in step 2.1.1 (conversion factor −3.8 mg/272 μL assay buffer). The material was transferred to an eppendorf tube and place in water bath in 4° C. refrigerator.
After equilibration to 4° C., equal volumes of NS3 and NS4A-2 solutions were combined in an eppendorf tube, mix gently with a manual pipettor, and incubate mixture for 15 minutes in the 4° C. water bath. Final concentrations in the mixture are […] NS3, 4.15 mM NS4A-2 (2485-fold molar excess NS4A-2).
After 15 minutes at 4° C., the NS3/NS4A-2 eppendorf tube was removed and place it in a room temperature water bath for 10 minutes. NS3/NS4A-2 was alliquoted at appropriate volumes and store at −80° C. (E. coli NS3 run at 2 nM in assay, aliquot at 25 μL. BV NS3 run at 3 nM in assay, aliquot at 30 μL).
Step 2.2.5. Sample compounds were dissolved to 10 mM in DMSO then diluted to 2.5 mM (1:4) in DMSO.
Step 2.2.6. The E. coli. NS3/NS4A-2 was diluted to 4 nM NS3 (1:417.5 of […] stock−18 μL 1.67 μM stock+7497 μL assay buffer). The BV NS3/NS4A-2 was diluted to 6 nM NS3 (1:278.3 of 1.67 μM stock−24 μL 1.67 μM stock+6655 μL assay buffer).
Step 2.2.7. Using the manual multichannel pipettor, and being careful not to introduce bubbles into the plate, 50 μL assay buffer were added to wells A01-H01 of a black Costar 96-well polypropylene storage plate.
Step 2.2.8. Using the manual multichannel pipettor, and being careful not to introduce bubbles into the plate, 50 μL of diluted NS3/NS4A-2 from step 2.2.6 were added to wells A02-H12 of plate in step 2.2.7.
Step 2.2.9. Using the manual multichannel pipettor, and being careful not to introduce bubbles into the plate, 25 μL of the wells in drug dilution plate in step 2.2.5 were transferred to corresponding wells in assay plate in step 2.2.8. The tips on multichannel pipettor were changed for each row of compounds transferred.
Step 2.2.10. Using the manual multichannel pipettor, and being careful not to introduce bubbles into the plate, the contents of the wells from the assay plate in step 2.2.9 were mixed by aspirating and dispensing 35 μL of the 75 μL in each well five times. The tips on the multichannel pipettor were changed for each row of wells mixed.
Step 2.2.11. The plate was covered with a polystyrene plate lid, and the plate from step 2.2.10 containing NS3 protease and sample compounds was pre-incubated 10 minutes at room temperature.
While the plate from step 2.2.11 was pre-incubating, the RETS1 substrate was diluted in a 15 mL polypropylene centrifuge tube. The RETS1 substrate was diluted to 8 μM (1:80.75 of 646 μM stock−65 μL 646 μM stock+5184 μL assay buffer).
After the plate in step 2.2.11 was done pre-incubating, and using the manual multichannel, 25 μL of substrate were added to all wells on the plate. The contents of the wells of plate were quickly mixed, as in step 2.2.10, but mixing 65 μL of the 100 μL in the wells.
The plate was read in kinetic mode on the Molecular Devices SpectraMax Gemini XS plate reader. Reader settings: Read time: 30 minutes, Interval: 36 seconds, Reads: 51, Excitation λ: 335 nm, Emission λ: 495 nm, cutoff: 475 nm, Automix: off, Calibrate: once, PMT: high, Reads/well: 6, Vmax pts: 21 or 28/51 depending on length of linearity of reaction.
IC50s were determined using a four parameter curve fit equation, and converted to Ki's using the following Km's:
where Ki=IC50/(1+[S]/Km))

[1] = tested on: HCV sub-genomic replicon, GS4.3; test: Quantitation by ELISA of NPTII in the HCV sub-genomic replicon, GS4.3, Section C; type: cell-based; details: Hepatitis C virus
Excerpt: Quantitation by ELISA of the selectable marker protein, Neomycin phosphotransferase II (NPTII) in the HCV Sub-Genomic Replicon, GS4.3
The HCV sub-genomic replicon (1377/NS3-3′, accession No. AJ242652), stably maintained in HuH-7 hepatoma cells, was created by Lohmann et al. Science 285: 110-113 (1999). The replicon-containing cell culture, designated GS4.3, was obtained from Dr. Christoph Seeger of the Institute for Cancer Research, Fox Chase Cancer Center, Philadelphia, Pa.
GS4.3 cells were maintained at 37° C., 5% CO2, in DMEM (Gibco 11965-092) supplemented with L-glutamine 200 mM (100×) (Gibco25030-081), non-essential amino acids (NEAA)(Biowhittaker 13-114E), heat-inactivated (HI) Fetal Bovine Serum(FBS)(Hyclone SH3007.03) and 750 μg/ml geneticin (G418)(Gibco 10131-035). Cells were sub-divided 1:3 or 4 every 2-3 days.
24 h prior to the assay, GS4.3 cells were collected, counted, and plated in 96-well plates (Costar 3585) at 7500 cells/well in 100 μl standard maintenance medium (above) and incubated in the conditions above. To initiate the assay, culture medium was removed, cells were washed once with PBS (Gibco 10010-023) and 90 μl Assay Medium (DMEM, L-glutamine, NEAA, 10% HI FBS, no G418) was added. Inhibitors were made as a 10× stock in Assay Medium, (3-fold dilutions from 10 μM to […] final concentration, final DMSO concentration 1%), 10 μl were added to duplicate wells, plates were rocked to mix, and incubated as above for 72 h.
An NPTII Elisa kit was obtained from AGDIA, Inc. (Compound direct ELISA test system for Neomycin Phosphotransferase II, PSP 73000/4800). Manufacturer's instructions were followed, with some modifications. 10×PEB-1 lysis buffer was made up to include 500 μM PMSF (Sigma P7626, 50 mM stock in isopropanol). After 72 h incubation, cells were washed once with PBS and 150 μl PEB-1 with PMSF was added per well. Plates were agitated vigorously for 15 minutes, room temperature, then frozen at −70° C. Plates were thawed, lysates were mixed thoroughly, and 100 μl were applied to an NPTII Elisa plate. A standard curve was made. Lysate from DMSO-treated control cells was pooled, serially diluted with PEB-1 with PMSF, and applied to duplicate wells of the ELISA plate, in a range of initial lysate amount of 150u1-2.5 ul. In addition, 100 μl buffer alone was applied in duplicate as a blank. Plates were sealed and gently agitated at room temperature for 2 h. Following capture incubation, the plates were washed 5×300 μl with PBS-T (0.5% Tween-20, PBS-T was supplied in the ELISA kit). For detection, a 1× dilution of enzyme conjugate diluent MRS-2 (5×) was made in PBS-T, into which 1:100 dilutions of enzyme conjugates A and B were added, as per instructions. Plates were resealed, and incubated with agitation, covered, room temperature, for 2 h. The washing was then repeated and 100 μl of room temperature TMB substrate was added. After approximately 30 minutes incubation (room temperature, agitation, covered), the reaction was stopped with 50 μl 3M sulfuric acid. Plates were read at 450 nm on a Molecular Devices Versamax plate reader.
Inhibitor effect was expressed as a percentage of DMSO-treated control signal, and inhibition curves were calculated using a 4-parameter equation: y=A+((B−A)/(1+((C/x)^D))), where C is half-maximal activity or EC50.

[2] = GS4.3 cells, 72 h incubation, read-out: EC50

T1 sequence (P27958 1027-1657): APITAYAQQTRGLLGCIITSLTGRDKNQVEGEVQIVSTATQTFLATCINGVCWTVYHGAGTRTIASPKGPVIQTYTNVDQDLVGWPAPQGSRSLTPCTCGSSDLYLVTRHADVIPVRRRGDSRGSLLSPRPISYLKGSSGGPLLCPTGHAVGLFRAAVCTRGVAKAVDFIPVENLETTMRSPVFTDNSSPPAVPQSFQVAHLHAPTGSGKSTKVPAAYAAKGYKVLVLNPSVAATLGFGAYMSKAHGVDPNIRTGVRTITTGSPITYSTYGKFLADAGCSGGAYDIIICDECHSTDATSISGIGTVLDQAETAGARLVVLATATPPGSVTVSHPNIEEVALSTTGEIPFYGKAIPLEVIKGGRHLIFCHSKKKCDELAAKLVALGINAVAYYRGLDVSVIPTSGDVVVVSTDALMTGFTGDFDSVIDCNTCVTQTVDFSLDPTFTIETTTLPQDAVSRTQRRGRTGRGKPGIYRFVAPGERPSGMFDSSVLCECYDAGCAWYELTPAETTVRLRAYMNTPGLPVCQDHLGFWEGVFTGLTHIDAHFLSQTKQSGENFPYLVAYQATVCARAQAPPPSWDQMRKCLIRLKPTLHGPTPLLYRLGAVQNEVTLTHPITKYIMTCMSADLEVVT

CN1CCN(S(=O)(=O)NC(=O)[C@@]23C[C@H]2/C=C\CCCCC[C@H](NC(=O)OC(C)(C)C)C(=O)N2C[C@H](OC(=O)N4Cc5ccccc5C4)C[C@H]2C(=O)N3)CC1 [Compound 118, (1S,4R,6S,14S,18R)-1,3-Dihydro-isoindole-2-carboxylic acid 14-tert-butoxycarbonylamino-4-(4-methylpiperazine-1-sulfonyl-aminocarbonyl)-2,15-dioxo-3,16-diaza-tricyclo[14.3.0.0^4,6]nonadec-7-en-18-yl ester]
pIC50 (NS3-NS4 protease; read-out: NS3-NS4 IC50): > 7.00
pEC50 [1, 2]: > 7.00

CC(C)(C)OC(=O)N[C@H]1CCCCC/C=C\[C@@H]2C[C@@]2(C(=O)NS(=O)(=O)N2CCN(C(=O)OCC[Si](C)(C)C)CC2)NC(=O)[C@@H]2C[C@@H](OC(=O)N3Cc4ccccc4C3)CN2C1=O [Compound 119, (1S,4R,6S,14S,18R)-1,3-Dihydro-isoindole-2-carboxylic acid 14-tert-butoxycarbonylamino-4-(4-(2-trimethylsilylethoxycarbonyl)piperazine-1-sulfonyl-aminocarbonyl)-2,15-dioxo-3,16-diaza-tricyclo[14.3.0.0^4,6]nonadec-7-en-18-yl ester]
pIC50 (NS3-NS4 protease): > 7.00
pEC50 ([1]; 72 h): > 7.00

CC(C)(C)OC(=O)N[C@H]1CCCCC/C=C\[C@@H]2C[C@@]2(C(=O)NS(=O)(=O)NC2CC2)NC(=O)C2C[C@@H](OC(=O)N3Cc4cccc(F)c4C3)CN2C1=O (stereo partly drawn) [Compound 121]
pIC50 (NS3-NS4 protease; read-out: NS3-NS4 IC50): > 7.00
pEC50 [1, 2]: > 7.00

CC(C)(C)OC(=O)N[C@H]1CCCCC/C=C\[C@@H]2C[C@@]2(C(=O)NS(N)(=O)=O)NC(=O)[C@@H]2C[C@@H](OC(=O)N3Cc4ccccc4C3)CN2C1=O [Compound 122, (1S,4R,6S,14S,18R)-1,3-Dihydro-isoindole-2-carboxylic acid 14-tert-butoxycarbonylamino-4-(aminosulfonyl-aminocarbonyl)-2,15-dioxo-3,16-diaza-tricyclo[14.3.0.0^4,6]nonadec-7-en-18-yl ester]
pIC50 (NS3-NS4 protease; read-out: NS3-NS4 IC50): > 7.00
pEC50 [1, 2]: > 7.00

CN1CCC(N(C2CC2)S(=O)(=O)NC(=O)[C@@]23C[C@H]2/C=C\CCCCC[C@H](NC(=O)OC(C)(C)C)C(=O)N2C[C@H](OC(=O)N4Cc5ccccc5C4)C[C@H]2C(=O)N3)CC1 [Compound 124, (1S,4R,6S,14S,18R)-1,3-Dihydro-isoindole-2-carboxylic acid 14-tert-butoxycarbonylamino-4-(cyclopropyl(1-methylpiperidin-4-yl)aminosulfonyl-aminocarbonyl)-2,15-dioxo-3,16-diaza-tricyclo[14.3.0.0^4,6]nonadec-7-en-18-yl ester]
pIC50 (NS3-NS4 protease; read-out: NS3-NS4 IC50): > 6.00
pEC50 [1, 2]: > 7.00

CC(C)(C)OC(=O)N[C@H]1CCCCC/C=C\[C@@H]2C[C@@]2(C(=O)NS(=O)(=O)N(CCC#N)C2CC2)NC(=O)[C@@H]2C[C@@H](OC(=O)N3Cc4ccccc4C3)CN2C1=O [Compound 125, (1S,4R,6S,14S,18R)-1,3-Dihydro-isoindole-2-carboxylic acid 14-tert-butoxycarbonylamino-4-(2-cyanoethyl(cyclopropyl)aminosulfonyl-aminocarbonyl)-2,15-dioxo-3,16-diaza-tricyclo[14.3.0.0^4,6]nonadec-7-en-18-yl ester]
pIC50 (NS3-NS4 protease; read-out: NS3-NS4 IC50): > 7.00
pEC50 [1, 2]: > 7.00

CC(C)N(C(C)C)S(=O)(=O)NC(=O)[C@@]12C[C@H]1/C=C\CCCCC[C@H](NC(=O)OC(C)(C)C)C(=O)N1C[C@H](OC(=O)N3Cc4ccccc4C3)C[C@H]1C(=O)N2 [Compound 126, (1S,4R,6S,14S,18R)-1,3-Dihydro-isoindole-2-carboxylic acid 14-tert-butoxycarbonylamino-4-(N,N-diisopropylaminosulfonyl-aminocarbonyl)-2,15-dioxo-3,16-diaza-tricyclo[14.3.0.0^4,6]nonadec-7-en-18-yl ester]
pIC50 (NS3-NS4 protease; read-out: NS3-NS4 IC50): > 7.00
pEC50 [1, 2]: > 7.00

CC(C)(C)OC(=O)N[C@H]1CCCCC/C=C\[C@@H]2C[C@@]2(C(=O)NS(=O)(=O)Nc2ccccc2)NC(=O)[C@@H]2C[C@@H](OC(=O)N3Cc4ccccc4C3)CN2C1=O [Compound 127, (1S,4R,6S,14S,18R)-1,3-Dihydro-isoindole-2-carboxylic acid 14-tert-butoxycarbonylamino-4-(phenylaminosulfonyl-aminocarbonyl)-2,15-dioxo-3,16-diaza-tricyclo[14.3.0.0^4,6]nonadec-7-en-18-yl ester]
pIC50 (NS3-NS4 protease; read-out: NS3-NS4 IC50): > 7.00
pEC50 [1, 2]: > 7.00

CC(C)(C)OC(=O)N[C@H]1CCCCC/C=C\[C@@H]2C[C@@]2(C(=O)NS(=O)(=O)Nc2ccc(Cl)cc2)NC(=O)[C@@H]2C[C@@H](OC(=O)N3Cc4ccccc4C3)CN2C1=O [Compound 128, (1S,4R,6S,14S,18R)-1,3-Dihydro-isoindole-2-carboxylic acid 14-tert-butoxycarbonylamino-4-(4-chlorophenylaminosulfonyl-aminocarbonyl)-2,15-dioxo-3,16-diaza-tricyclo[14.3.0.0^4,6]nonadec-7-en-18-yl ester]
pIC50 (NS3-NS4 protease; read-out: NS3-NS4 IC50): > 7.00
pEC50 [1, 2]: > 7.00
